Literature values, collected in patent US20020103139A1, “Solid self-emulsifying controlled release drug delivery system composition for enhanced delivery of water insoluble phytosterols and other hydrophobic natural compounds for body weight and cholestrol level control” (priority 2000, published 2002).

Assays:
[1] = treated patients versus placebo
[2] = doses of 700 and 300 mg

Compound | average weight lost more than with placebo [1] | difference in cholesterol reduction between doses [2]
CCN[C@@H](C)Cc1cccc(C(F)(F)F)c1 [dexfenfluramine] | 5 pounds | 
CCNC(C)Cc1cccc(C(F)(F)F)c1 (stereo not drawn) [fenfluramine] | 5 pounds | 
CC[C@H](CC[C@@H](C)[C@H]1CC[C@H]2[C@@H]3CC[C@H]4C[C@@H](O)CC[C@]4(C)[C@H]3CC[C@]12C)C(C)C [sitostanol] |  | No significant difference
